PubChem BioAssay (NCI)
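All cell lines were grown in 96-well plates and treated with compound for 48 hours. TGI denotes the concentration required for complete inhibition of growth.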 Where a SMILES comes first, the peptide text is derived from it. The star is where a group is joined. Boc = CC(C)(C)OC(=O)*

Assays:
Assay in all cases: NCI-60 cell line screen, 48 h
SK-MEL-2 melanoma = tested on: SK-MEL-2 melanoma
ACHN renal = tested on: ACHN renal
SK-OV-3 ovarian = tested on: SK-OV-3 ovarian
NCI-H226 lung = tested on: NCI-H226 lung
786-0 renal = tested on: 786-0 renal
KM12 colon = tested on: KM12 colon
MDA-N = tested on: MDA-N
HOP-92 NSCLC = tested on: HOP-92 NSCLC
MALME-3M melanoma = tested on: MALME-3M melanoma
HS 578T breast = tested on: HS 578T breast
MCF7 breast = tested on: MCF7 breast

Row | Compound | TGI (SK-MEL-2 melanoma) [µM] | TGI (ACHN renal) [µM] | TGI (SK-OV-3 ovarian) [µM] | TGI (NCI-H226 lung) [µM] | TGI (786-0 renal) [µM] | TGI (KM12 colon) [µM] | TGI (MDA-N) [µM] | TGI (HOP-92 NSCLC) [µM] | TGI (MALME-3M melanoma) [µM] | TGI (HS 578T breast) [µM] | TGI (MCF7 breast) [µM]
1 | O=C(/C=C/c1ccc(O)cc1)c1ccc2c(c1)OCO2 | 62.4 | 52.8 | 82.6 | 34.1 | 57.7 | 33.7 | 86.1 | 58.8 | > 100 | – | –
2 | Cc1c(Cl)nc(Nc2nc3ccccc3[nH]2)nc1Cl | > 100 | > 100 | > 100 | > 100 | > 100 | 41.6 | > 100 | 18.6 | > 100 | 82 | –
3 | CCCN1C(=O)CC(C)N(Cc2ccccc2Cl)C1=S (stereo not given) | 44.1 | 88.4 | > 100 | – | > 100 | 92.5 | 60.6 | 69.3 | 56.7 | > 100 | 78.4
4 | Cc1ccsc1/C=N/Nc1nc2ccccc2s1 | 75.3 | 30.8 | 35.3 | 51.9 | 24.7 | 74.6 | > 100 | 49.5 | – | 78.2 | 36
5 | CCCCC(C#N)(OP1(=O)OC(c2ccccc2)C(C)N1C)c1ccccc1 (stereo not given) | 34.2 | 37.5 | 43.7 | – | 31.8 | 37.2 | 31.3 | 25.8 | 30.6 | 39.3 | 39
6 | CCOC(=O)c1cc(-c2cc(OC)c(OC)c([N+](=O)[O-])c2)c([N+](=O)[O-])n1C | > 10 | > 10 | – | > 10 | > 10 | > 10 | – | > 10 | > 10 | > 10 | –
7 | C[C@]12CCC(=O)C=C1CC[C@@H]1[C@@H]2[C@@H](O)C[C@@]2(C)[C@H]1CC[C@]2(O)C(=O)COC(=O)COCC(=O)O | > 100 | > 100 | > 100 | > 100 | > 100 | > 100 | – | > 100 | > 100 | – | –
8 | CN(C)c1ccc(C(=C(c2ccc(N(C)C)cc2)c2ccc(N(C)C)cc2)c2ccc(N(C)C)cc2)cc1 | 28.5 | 24.6 | 41.8 | 36.9 | 23.7 | 47.8 | – | – | 32.6 | – | –
9 | COC(=O)C(Cc1c[nH]c2ccccc12)NC(=O)C(Cc1c[nH]c2ccccc12)NC(=O)C(Cc1c[nH]c2ccccc12)NC(=O)C(Cc1c[nH]c2ccccc12)NC(=O)C(Cc1c[nH]c2ccccc12)NC(=O)C(Cc1c[nH]c2ccccc12)NC(=O)OC(C)(C)C (stereo not given) (Boc-WWWWWW-OMe; configuration not given here) | > 100 | > 100 | – | > 100 | > 100 | – | > 100 | – | > 100 | – | > 100
10 | COc1cc2c(cc1OC)C(C(CO)CO)N(CC(O)CCl)CC2 (stereo not given) | > 100 | > 100 | > 100 | > 100 | > 100 | > 100 | – | > 100 | > 100 | – | –
11 | O=C(/N=C/c1c(O)c2ccccc2oc1=O)Nc1ccccc1 | 80.4 | > 100 | > 100 | > 100 | > 100 | > 100 | – | > 100 | 94 | – | –
12 | O=S(=O)(c1ccccc1)n1c2ccc(Br)cc2c2nc3ccccc3nc21 | > 100 | > 100 | – | > 100 | > 100 | > 100 | > 100 | > 100 | > 100 | > 100 | –
13 | C[Si](C)(OCCS(=O)(=O)O)C1(Cc2cccc3ccccc23)S(=O)(=O)OCCOS1(=O)=O | 46.3 | 51.9 | 35.6 | 45.8 | – | 29.5 | 41.9 | 50.7 | – | 95 | 39.5
14 | COc1ccc(-c2cc(=O)c3cc4c(cc3[nH]2)OCO4)cc1OC | > 100 | > 100 | > 100 | > 100 | > 100 | > 100 | – | > 100 | > 100 | – | –
15 | N#CC1=C(N)n2c(s/c(=C\c3ccc(Cl)cc3)c2=O)=C(c2nc3ccccc3[nH]2)C1c1ccc(Cl)cc1 (stereo not given) | 4.21 | 5.26 | – | 3.46 | 4.96 | 3.06 | – | 0.954 | 4.74 | – | –
16 | CCCSc1ccc2[nH]c(N3C(=O)/C(=C/c4ccco4)N=C3c3ccccc3)cc2c1 | 24.4 | > 50 | – | – | > 50 | > 50 | 20.1 | > 50 | > 50 | – | > 50
17 | O=S(=O)(O)c1cc(O)c2c(N=Cc3ccccc3O)cc(S(=O)(=O)O)cc2c1 | > 100 | > 100 | > 100 | > 100 | > 100 | > 100 | > 100 | > 100 | > 100 | – | > 100
18 | CC1=Nc2nc(Cl)cn2C(=O)C1(Cl)Cl | > 10 | > 10 | > 10 | > 10 | – | > 10 | > 10 | – | > 10 | > 10 | > 10
19 | CCOP(=O)(OCC)/C(C#N)=C/c1cn(C)cn1 | > 100 | > 100 | > 100 | > 100 | – | > 100 | > 100 | > 100 | > 100 | – | > 100
20 | O=c1[nH]c(=O)n(C2OC(COP(=O)(O)OP(=O)(O)OC3OC(CO)C(O)C(O)C3O)C(O)C2O)cc1F (stereo not given) | > 91.3 | 7.18 | > 87.5 | 2.72 | 2.68 | 10.7 | – | 9.62 | 20.9 | – | –
21 | CCSc1sc(=Nc2ccc(N=c3sc(C)c(SC)s3)cc2)sc1-c1ccc(C)cc1 | > 100 | > 100 | > 100 | – | > 100 | > 100 | > 100 | > 100 | > 100 | > 100 | > 100
22 | NC(CCCC(N)P(=O)(O)c1ccccc1)P(=O)(O)c1ccccc1 (stereo not given) | > 261 | > 261 | > 261 | > 261 | > 261 | > 261 | – | > 261 | > 261 | – | –
23 | Cc1[nH]c2c(c1C)S(=O)(=O)c1cc3ccccc3nc1N2 | > 100 | > 100 | > 100 | 66.5 | 30.4 | > 100 | 39.4 | > 100 | 45.2 | – | > 100
